We go through four molecules from US20130040893A1, “TREATMENT OF PROLIFERATIVE DISORDERS” (TETRALOGIC PHARMACEUTICALS CORPORATION, priority 2005, published 2013).

Where two headings read alike, the source gives them in different places.

The term IC50 denotes the concentration at which inhibition is half-maximal.

Assay [1] relates to SK-OV-3 cells. Kind of assay: MTT cell growth assay in SK-OV-3 ovarian cancer cells. It counts as cell-based. The note with it: Homo sapiens. Here is the method:
The MTT assay is an example of an assay that has been used for measuring cell growth as previously described (Hansen, M. B., Nielsen, S. E., and Berg, K. (1989) J. Immunol. Methods 119, 203-210) and incorporated herein by reference in its entirety. Briefly, SK-OV-3 cells were seeded in 96-well plates in McCoy's medium containing 10% fetal bovine serum […] (10,000 per well) and incubated overnight at 37° C.
μM) and the plates were incubated at 37° C. for an additional 72 hrs. This incubation time was optimal for measuring inhibitory effects of different analogs. 50 microliters of 5 mg/mL MTT reagent to each well was added and the plates were incubated at 37° C. for 3 hours. At the end of incubation period, 50 microliters of DMSO was added to each well to dissolve cells and the optical density (OD) of the wells was measured with a microplate reader (Victor^2 1420, Wallac, Finland) at 535 nm. Cell survival (CS) was calculated by the following equation:
CS=(OD treated well/mean OD control wells)×100%.
The EC50 (Table 1), defined as the drug concentration that results in 50% CS, was derived by calculating the point where the dose-response curve crosses the 50% CS point using GraphPad Prism.
(In general: Tetrazolium assays rely on reduction of a dye to a coloured formazan, in cell work by metabolically active cells.)

Assay [2] deals with OVCAR-3 cell line. Kind of assay: Synergistic toxicity with SN-38, MTT matrix. The class given is cell-based. The source says:
MTT assays were setup by testing a matrix of concentrations of both drugs.

Assay [3] has as its target BIR-3 domain of XIAP (Homo sapiens, UniProt P98170). Kind of assay: Fluorescence polarization binding assay, XIAP BIR-3 domain.
Method: (§6) IC50 values (Table I) were determined from the plot using nonlinear least-squares analysis using GraphPad Prism.
(§7) We have utilized the specificity of this IAP binding motif in a fluorescence polarization assay to measure the binding affinities for cIAP-1 Antagonists. The fluorescence polarization assay consists of FP peptide {Sri: What is “FP Peptide”?}, and the recombinant BIR3 domain of the XIAP protein. The FP peptide and mimics of cIAP-1 N-terminus compete for binding to the BIR3 protein. […] If a peptide, peptidomimetic, or other small molecule being tested is a competitor, then it succeeds in displacing the FP peptide, resulting in a low mP value. Molecules that compete with the FP peptide can be titrated and IC50 values determined (GraphPad Prism nonlinear regression curve-fitting program) by plotting mp value as the direct measure of fraction bound vs. the log of the compound concentration.
Assay [4] has as its target BIR-3 domain of cIAP-1 (Homo sapiens, UniProt Q13490). Kind of assay: Fluorescence polarization binding assay, cIAP-1 BIR-3 domain. On the technique in general: Fluorescence polarisation rises when a labelled molecule tumbles more slowly, as on binding a larger partner.
Method: as §6, §7
For assay [5], the system named is BIR-3 domain of cIAP-1. Described as above. To be noted: cIAP-1 relative to XIAP.
Method: as §6, §7
Assay [6] addresses T1, cIAP-1 (Homo sapiens, UniProt Q13490).
T1 construct: endogenous in cells; host or cells: SKOV3 (SK-OV-3) cells
The assay can be described thus: Western blot of cIAP-1 degradation in SKOV3 cells. The class given is cell-based. The note with it: SK-OV-3 cells, 20 hrs, absence of bortezomib. As to the method:
(§1) SKOV3 cells were passed into six 60×15 mm tissue culture dishes 2 days before experiment. Cells appeared to be ˜80% confluent at time of harvest. […] A 10-fold dilution of this solution into medium A gave the 100 nM working solution.
(§2) Western blot analysis was carried out using standard technique. Briefly, cells were lysed using the MPER mammalian cell lysis solution (Bio-Rad #78503) to which 10 μl/mL of a 100× solution of HALT protease inhibitor cocktail (Bio-Rad #78410) has been added. To each dish of cells, 200 μl of the lysis solution plus protease inhibitors is added. The cells in each dish are scraped using a cell scraper and allowed to incubate with the reagent for 10 minutes. The lysates were transferred to pre-chilled microfuge tubes and spun for 20 minutes at 15,000×g at 4° C. The supernatant was transferred to a clean, chilled microfuge tube.
(§3) Next, the total protein content of the lysates was determined using the BCA Protein Assay according to the manufacturer's protocol and using interpolation from a standard curve generated with BSA.
(§4) The samples were normalized for protein content during preparation for gel electrophoresis. The samples were prepared using 2× Laemmli Sample buffer to which 200 mM DTT was added. […]
(A western blot detects proteins with antibodies after separation by electrophoresis.)

In assay [7] the target is T2, XIAP (Homo sapiens, UniProt P98170).
T2 construct: SKOV3 cells were passed into six 60×15 mm tissue culture dishes; endogenous in cells; host or cells: SKOV3 (SK-OV-3) cells
T2 sequence (P98170 whole entry): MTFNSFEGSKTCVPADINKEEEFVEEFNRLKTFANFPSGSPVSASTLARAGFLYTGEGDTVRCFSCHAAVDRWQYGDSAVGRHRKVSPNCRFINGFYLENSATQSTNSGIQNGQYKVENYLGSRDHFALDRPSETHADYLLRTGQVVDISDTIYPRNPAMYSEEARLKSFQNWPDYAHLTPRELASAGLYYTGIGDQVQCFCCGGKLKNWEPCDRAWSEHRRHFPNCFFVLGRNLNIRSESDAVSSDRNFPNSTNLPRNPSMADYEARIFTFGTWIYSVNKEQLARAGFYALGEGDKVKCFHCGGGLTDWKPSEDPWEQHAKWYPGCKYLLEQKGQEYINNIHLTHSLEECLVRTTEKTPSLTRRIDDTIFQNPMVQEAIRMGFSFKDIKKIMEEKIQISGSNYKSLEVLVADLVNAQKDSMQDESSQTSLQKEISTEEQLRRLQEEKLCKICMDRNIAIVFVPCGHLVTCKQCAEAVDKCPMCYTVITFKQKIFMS
Kind of assay: Western blot of XIAP degradation in SKOV3 cells. The note with it: SK-OV-3 cells, 20 hrs, absence of bortezomib. The class given is cell-based. Here is the method:
as §1, §2, §3, §4

Assay [8] concerns SK-OV-3^R cells. The assay can be described thus: TRAIL sensitivity MTT assay in IAP Antagonist-resistant SK-OV-3 cells. It counts as cell-based. Here is the method: (§5) Another unexpected observation we made was with respect to TRAIL sensitivity. IAP Antagonist-resistant SK-OV-3 cells (SK-OV-3^R) were generated by exposing the parental SK-OV-3 cells (SK-OV-3^S) to an IAP antagonist compound at a concentration that kills 95% of cells. Three days later, viable cells were transferred to a fresh flask and grown to confluency. Two weeks later, the cells were tested for IAP Antagonist sensitivity in an MTT assay as described above and as expected, found these cells to be resistant to IAP Antagonist cytotoxicity.

The subject of assay [9] is SK-OV-3^S cells. The assay can be described thus: TRAIL sensitivity MTT assay in parental SK-OV-3 cells. It counts as cell-based. Here is the method: as §5
Where [10] appears, read: SK-OV-3 cells, 72 hrs, read-out: MTT EC50.

Chain of BIR-3 domain of cIAP-1 (Homo sapiens, UniProt Q13490) (Q13490 266-352 limits assumed): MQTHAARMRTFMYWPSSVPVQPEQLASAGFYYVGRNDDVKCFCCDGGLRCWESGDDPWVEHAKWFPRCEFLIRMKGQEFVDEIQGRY
Chain of BIR-3 domain of XIAP (P98170 241-356 limits assumed): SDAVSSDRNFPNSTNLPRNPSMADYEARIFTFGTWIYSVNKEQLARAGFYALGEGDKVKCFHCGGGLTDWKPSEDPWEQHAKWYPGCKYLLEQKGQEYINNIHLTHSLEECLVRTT
T1 sequence (Q13490 whole entry): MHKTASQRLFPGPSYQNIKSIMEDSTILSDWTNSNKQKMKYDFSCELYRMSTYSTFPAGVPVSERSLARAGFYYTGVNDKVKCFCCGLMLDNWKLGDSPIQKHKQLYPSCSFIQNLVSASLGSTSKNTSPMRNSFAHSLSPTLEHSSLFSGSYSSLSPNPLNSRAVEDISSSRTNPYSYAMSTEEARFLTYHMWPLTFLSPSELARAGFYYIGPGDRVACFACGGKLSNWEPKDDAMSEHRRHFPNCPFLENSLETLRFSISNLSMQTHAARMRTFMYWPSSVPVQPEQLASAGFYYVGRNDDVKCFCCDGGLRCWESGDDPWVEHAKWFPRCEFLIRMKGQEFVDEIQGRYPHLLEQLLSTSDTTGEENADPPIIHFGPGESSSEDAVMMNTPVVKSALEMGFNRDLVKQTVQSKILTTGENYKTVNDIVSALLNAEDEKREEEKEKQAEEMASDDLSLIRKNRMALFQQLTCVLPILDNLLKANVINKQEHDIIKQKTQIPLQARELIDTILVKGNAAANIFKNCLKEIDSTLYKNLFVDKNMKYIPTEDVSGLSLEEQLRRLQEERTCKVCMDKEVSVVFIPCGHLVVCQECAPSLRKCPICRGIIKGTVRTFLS

Consider `CC(C)[C@H](NC(=O)CN)C(=O)N1C[C@@H](Oc2ccccc2)C[C@H]1Cc1coc2ccccc12` [Compound I], for which the EC50 is below 10 nM in assay [1] (SK-OV-3, Table 10, read-out: MTT (SKOV-3)) and below 10 nM in assay [1] (setting [10]). Further, the “synergistic toxicity with SN-38 (synergistic volume)” value in assay [2] was “comparable”. For the same molecule, the concentration for half-maximal inhibition (IC50) was above 100 nM in assay [3]; above 100 nM in assay [3] (read-out: IC50 (XIAP), Table 10); below 10 nM in [4]; below 10 nM in [4] (read-out: IC50 (cIAP-1), Table 10). Further, in assay [5], the “binding to cIAP-1 more tightly than to XIAP” value is 117 fold.
As to `CN[C@@H](C)C(=O)N[C@H](C(=O)N1CCC[C@H]1Cc1c(-c2ccc(F)cc2)n(CCOCCOCCOC)c2cc(F)ccc12)C(C)(C)C` [Q], the EC50 in assay [1] (setting [10]) was below 10 nM. Besides, the “cIAP-1 protein by western blot” value in assay [6] is reported as “complete disappearance”. The “XIAP protein by western blot” value in assay [7] was “complete disappearance”. Besides, the IC50 in assay [3] and in [4] was 10 to 100 nM each time.
On to `CN[C@@H](C)C(=O)N[C@H](C(=O)N1CCC[C@H]1Cc1c(-c2ccc(N3CCOCC3)cc2)n(CCOCCOCCOC)c2cc(F)ccc12)C(C)(C)C` [R], for which the EC50 in assay [1] (setting [10]) lay in the range of 10 to 100 nM. The half-inhibitory concentration (IC50) in assay [3] and in assay [4] was 10 to 100 nM throughout.

B1: TRAIL: tumor necrosis factor-related apoptosis-inducing ligand, member of the TNF superfamily (protein, UniProt P50591 1-281, looked up)
Tumor necrosis factor ligand …: MAMMEVQGGPSLGQTCVLIVIFTVLLQSLCVAVTYVYFTNELKQMQDKYSKSGIACFLKEDDSYWDPNDEESMNSPCWQVKWQLRQLVRKMILRTSEETISTVQEKQQNISPLVRERGPQRVAAHITGTRGRSNTLSSPNSKNEKALGRKINSWESSRSGHSFLSNLHLRNGELVIHEKGFYYIYSQTYFRFQEEIKENTKNDKQMVQYIYKYTSYPDPILLMKSARNSCWSKDAEYGLYSIYQGGIFELKENDRIFVSVTNEHLIDMDHEASFFGAFLVG
Turning to B1, the values for the TRAIL sensitivity result in assay [8] and in assay [9] were “sensitive to TRAIL” and “resistant to TRAIL”, respectively.
